The target in series [1] is Voltage-gated inwardly rectifying potassium channel KCNH2 (Homo sapiens, UniProt Q12809). Nature of the series: Safety Test: The effect of test compounds on hERG potassium channel were determined using Predictor hERG Fluorescence Polarization Assay at concentrations of 3, 10, and 30 μM.
The target of a further series is CYP2D6 (Homo sapiens, UniProt P10635). Put plainly: (§1) As such, the compound of the present invention has no significant inhibitory effect on CYP1A2, CYP2D6 and CYP3A4, and thus has no safety issue caused by metabolism interactions among different drugs due to inhibition of the enzymes.
Sequence of CYP2D6 (P10635 whole entry): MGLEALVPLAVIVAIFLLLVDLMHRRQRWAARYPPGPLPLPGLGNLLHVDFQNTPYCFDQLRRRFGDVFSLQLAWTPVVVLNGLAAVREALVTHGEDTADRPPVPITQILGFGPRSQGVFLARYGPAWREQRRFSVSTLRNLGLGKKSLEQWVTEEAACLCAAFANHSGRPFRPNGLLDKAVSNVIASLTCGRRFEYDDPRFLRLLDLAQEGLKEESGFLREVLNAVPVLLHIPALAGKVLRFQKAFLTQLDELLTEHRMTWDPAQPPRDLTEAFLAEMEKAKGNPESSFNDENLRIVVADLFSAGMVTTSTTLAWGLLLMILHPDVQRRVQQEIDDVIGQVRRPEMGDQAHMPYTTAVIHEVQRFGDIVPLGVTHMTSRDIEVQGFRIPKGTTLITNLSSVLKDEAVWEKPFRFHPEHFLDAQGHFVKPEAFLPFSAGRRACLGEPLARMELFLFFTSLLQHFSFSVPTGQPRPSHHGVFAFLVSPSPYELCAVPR
A further series addresses CYP3A4 (Homo sapiens, UniProt P08684). The series is described as §1.
The target of another series is T1, Cytochrome P450 1A2 (Homo sapiens, UniProt P05177).
T1 sequence (P05177 whole entry): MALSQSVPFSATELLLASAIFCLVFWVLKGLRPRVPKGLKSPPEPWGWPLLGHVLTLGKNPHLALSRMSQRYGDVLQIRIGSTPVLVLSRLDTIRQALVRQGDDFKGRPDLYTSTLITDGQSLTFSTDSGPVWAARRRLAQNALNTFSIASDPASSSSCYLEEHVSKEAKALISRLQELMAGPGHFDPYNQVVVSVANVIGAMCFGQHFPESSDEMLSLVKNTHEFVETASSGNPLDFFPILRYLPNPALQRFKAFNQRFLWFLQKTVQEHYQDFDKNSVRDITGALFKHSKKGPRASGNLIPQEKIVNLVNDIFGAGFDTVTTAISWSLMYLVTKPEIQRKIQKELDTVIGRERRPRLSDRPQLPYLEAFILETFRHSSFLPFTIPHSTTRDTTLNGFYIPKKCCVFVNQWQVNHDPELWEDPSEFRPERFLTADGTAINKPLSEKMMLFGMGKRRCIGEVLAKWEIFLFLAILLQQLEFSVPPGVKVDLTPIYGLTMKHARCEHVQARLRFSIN
The series is described as §1.

Structures are written as SMILES. pIC50: −log10 of the molar value. A value given as a limit tells only on which side of the number the result lay.

Sequence of Voltage-gated inwardly rectifying potassium channel KCNH2 (Q12809 whole entry): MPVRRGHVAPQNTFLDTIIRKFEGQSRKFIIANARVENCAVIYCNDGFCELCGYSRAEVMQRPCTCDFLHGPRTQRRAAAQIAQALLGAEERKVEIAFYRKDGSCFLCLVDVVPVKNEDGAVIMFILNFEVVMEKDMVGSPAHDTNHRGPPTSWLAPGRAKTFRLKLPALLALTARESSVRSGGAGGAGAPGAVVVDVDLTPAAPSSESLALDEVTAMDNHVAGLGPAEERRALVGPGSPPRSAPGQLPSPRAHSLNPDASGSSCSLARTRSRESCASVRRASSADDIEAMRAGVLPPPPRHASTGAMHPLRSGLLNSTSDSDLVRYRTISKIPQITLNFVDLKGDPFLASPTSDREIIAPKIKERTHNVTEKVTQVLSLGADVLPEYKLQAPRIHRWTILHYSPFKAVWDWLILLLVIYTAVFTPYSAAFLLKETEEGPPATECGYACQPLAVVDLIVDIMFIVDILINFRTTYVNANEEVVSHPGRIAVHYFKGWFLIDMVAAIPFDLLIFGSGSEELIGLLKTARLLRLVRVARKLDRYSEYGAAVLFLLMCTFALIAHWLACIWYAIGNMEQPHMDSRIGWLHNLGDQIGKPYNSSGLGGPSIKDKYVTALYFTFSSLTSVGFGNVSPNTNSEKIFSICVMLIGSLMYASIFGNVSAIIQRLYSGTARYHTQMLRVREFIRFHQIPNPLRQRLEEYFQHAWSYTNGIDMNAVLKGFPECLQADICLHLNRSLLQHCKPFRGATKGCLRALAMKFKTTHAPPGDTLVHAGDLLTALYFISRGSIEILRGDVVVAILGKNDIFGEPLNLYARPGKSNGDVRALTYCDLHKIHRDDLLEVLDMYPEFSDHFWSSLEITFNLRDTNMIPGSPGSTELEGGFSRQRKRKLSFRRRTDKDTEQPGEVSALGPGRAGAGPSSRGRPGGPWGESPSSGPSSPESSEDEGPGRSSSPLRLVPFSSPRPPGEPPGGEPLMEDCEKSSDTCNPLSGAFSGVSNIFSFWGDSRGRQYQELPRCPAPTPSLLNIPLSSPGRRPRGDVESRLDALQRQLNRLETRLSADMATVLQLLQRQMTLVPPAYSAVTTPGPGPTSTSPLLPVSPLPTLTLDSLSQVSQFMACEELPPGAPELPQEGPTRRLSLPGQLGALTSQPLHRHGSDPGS
Sequence of CYP3A4 (P08684 whole entry): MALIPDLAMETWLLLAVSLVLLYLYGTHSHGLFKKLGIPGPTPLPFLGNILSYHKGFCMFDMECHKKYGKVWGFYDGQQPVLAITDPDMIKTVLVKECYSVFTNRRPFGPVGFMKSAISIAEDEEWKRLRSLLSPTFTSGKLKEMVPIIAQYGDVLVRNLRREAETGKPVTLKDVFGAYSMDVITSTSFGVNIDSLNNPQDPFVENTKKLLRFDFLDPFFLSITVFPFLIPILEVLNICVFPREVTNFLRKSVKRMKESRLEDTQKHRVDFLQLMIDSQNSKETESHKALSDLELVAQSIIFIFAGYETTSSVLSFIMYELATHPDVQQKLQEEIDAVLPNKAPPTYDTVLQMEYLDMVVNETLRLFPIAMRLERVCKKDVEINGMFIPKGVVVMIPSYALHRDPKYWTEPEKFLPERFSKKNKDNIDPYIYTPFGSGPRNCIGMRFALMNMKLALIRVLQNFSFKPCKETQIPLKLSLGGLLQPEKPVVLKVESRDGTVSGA

Take `Cc1nn(C2(CC#N)CN(S(=O)(=O)C(C)C)C2)cc1-c1ncnc2[nH]ccc12`: the pIC50 in series [1] is below 4.52; on CYP2D6, below 5.00; against CYP3A4, below 5.00; at Cytochrome P450 1A2 it was below 5.00.

The record behind these values is ChEMBL document CHEMBL5728557, “Azetidine derivative, preparation method therefor, and use thereof” (2021).
